Reference: US10046001B2, “Compositions and methods for reducing intraocular pressure” (UNIVERSITY OF MIAMI, priority 2013, dated 2018)

What was measured:
DBA/2J mice = experiment: IOP lowering after topical application in DBA/2J mice; assay type: in vivo, mouse; details: DBA/2J mouse at 8 months, IOP ~35 mm of Hg, topical once daily up to 7 days
Procedure: The right eye was treated with vehicle alone and left eye treated with lipid. Control had both eyes treated with vehicle. A. In DBA/2J mice the indicated lipid in vehicle or control (vehicle only) were administered one daily at around 7.5 months of age in mice which were noted to have a IOP≥18 mm of Hg (20% increase from an average baseline of 15 mm of Hg was employed as treatment point). The average IOP recordings are shown for indicated lipids. B. A 10 picomole each of six PC (13:0/13:0; PE (18:0/18:0), Lyso-PS 18:0, PS 18:1, Sphinganine and C17S1P) were combined and applied as a topical dose once daily for up to 7 days on DBA/2J mouse eyes in 5% DMSO (vehicle). […] Transgenic myocillin mice [Tg-MYOC(Y437H)] subjected to a topical dose of indicated lipids as noted above (FIG. 5C). The IOP lowering compared to control was noted on day 4 and 6 as shown.
Intraocular pressure lowering in mouse models. The endogenous lipids lowered IOP in a DBA/2J mouse model of glaucoma (FIG. 5A). DBA/2J is the only known mouse animal where elevation of IOP occur spontaneously. Although this mouse also suffers from pigmentary dispersion, however, elevation of IOP appears not to correlate with […]. The lipids as indicated were applied as a topical dose (10 pmole in 5% DMSO as vehicle). The 5% DMSO only vehicle served as a control (FIG. 5A). […] A 10 picomole each of six PC (13:0/13:0; PE (18:0/18:0), Lyso-PS 18:0, PS 18:1, Sphinganine, and C17S1P) were combined and applied as a topical dose once daily for up to 7 days on DBA/2J mouse eyes in 5% DMSO (vehicle) (in other words, 10 picomoles of each PC was included). […] In addition to the DBA/2J model described here, these endogenous lipids lowered IOP in cochlin and connective tissue growth factor (CTGF) over-expression models. […] Thus the endogenous lipids assessed here lowered IOP in vastly different DBA/2J and MYOC(Y437H) mouse models as well as in cochlin and CTGF overexpression models covering a broad swath of four rodent glaucoma models that encompass induced as well as spontaneous IOP elevation.
Topical application of lipids and measurement of IOP: The lipids were topically applied as 1 μl drops with 10 pmole lipids. Pressure was measured with a tonolab (Colonial
Medical Supplies, N.H.) or with an assembled cannulation device, used in our laboratory. An initial assessment had utilized 10% DMSO as vehicle. However, all data reported here utilized 5% DMSO.

[1] = test system: normotensive cynomolgus monkeys; experiment: IOP and slit lamp examination in normotensive cynomolgus monkeys after topical lipid; assay type: in vivo
Procedure: Lipids were topically administered in 1 μl volume around ˜1 pm in the afternoon. The right eye was treated with vehicle alone, and the left eye was treated with lipid. The cynomolgus monkeys (n=4) were treated with […] lipid (except C17S1P which was 50 nM) for 5 days. Monkeys were subjected to slit lamp examination and IOP measurement prior to and after treatment. The IOP measured 3-6 hours post-treatment on the fifth day of treatment is depicted as solid bars. The hollow bars are control (vehicle only (5% DMSO)).
Experimental design: The IOP-reducing activity of six lipids was tested in the eyes of cynomolgus monkeys (n=4 animals for each lipid). Baseline slit lamp biomicroscopic examination (SLE) and IOP for each group of animals was measured prior to topical application of lipids. The SLE and IOP were then measured at 3-6 hours posttreatment. One eye of each monkey received topical application with the lipid suspended in vehicle (1% dimethylsulfoxide (DMSO)), and the contralateral eye was treated with vehicle only. All topical applications contained 10 picomole of lipid (except C17S1P, which was 50 nM). […] The IOP was measured using a minified Goldmann applanation tonometer.

Structure (SMILES)	lowering of IOP after elevation, short term application (FIG. 5B) (DBA/2J mice)	IOP reduction ([1]; topical 10 picomole (C17S1P 50 nM), 5 days, IOP 3-6 hours post-treatment)	adverse side effects or toxicity ([1]; topical, slit lamp examination)
CCN[C@H]1C[C@H](C)S(=O)(=O)c2sc(S(N)(=O)=O)cc21 [Dorzolamide, reference compound]	same level of IOP reduction as Timolol	–	–
CCCCCCCCCCCCCCCCCC(=O)OC[C@@H](O)COP(=O)(O)OC[C@H](N)C(=O)O [PS18:0 Lyso-PS]	–	reduced IOP significantly	without additional adverse side effects or toxicity
